Assay results: the NIST ThermoML archive (doi:10.1016/j.jct.2017.09.005)
Several values for one entry are separate records, joined by “and”; a condition that tells them apart may be missing. Identical values can stand only once.

Assays:
[1] = for vapor or sublimation pressure: Twin ebulliometer; for molar entropy: 101.33 kPa, Small sample (50 mg) DSC; for Critical density: DSC; for Critical temperature: DTA
[2] = molar heat capacity at saturation pressure; settings: Liquid, Small sample (50 mg) DSC

Cc1c[nH]c(C)c1 [2,4-dimethyl-1H-pyrrole]
[1]
Settings | mass density [kg/m3]
323.14 K, Liquid, Vibrating tube method | 895.5
348.13 K, Liquid, Vibrating tube method | 874.8
373.12 K, Liquid, Vibrating tube method | 853
398.12 K, Liquid, Vibrating tube method | 830.6
423.11 K, Liquid, Vibrating tube method | 807.2
448.11 K, Liquid, Vibrating tube method | 781.3
645.3 K, Gas, From heat capacities measured by DSC | 159
648.6 K, Gas, From heat capacities measured by DSC | 220
649 K, Gas, From heat capacities measured by DSC | 248
650 K, Liquid, From heat capacities measured by DSC | 413
656.5 K, Liquid, From heat capacities measured by DSC | 292

[1], Liquid
Settings | molar entropy [J/K/mol] | vapor or sublimation pressure
338.25 K | – | 1.995 kPa
343.72 K | – | 2.666 kPa
351.75 K | – | 4 kPa
357.76 K | – | 5.337 kPa
366.62 K | – | 7.992 kPa
373.28 K | – | 10.66 kPa
378.68 K | – | 13.34 kPa
384.24 K | – | 16.66 kPa
388.88 K | – | 19.93 kPa
394.96 K | – | 25.02 kPa and 25.01 kPa
401.09 K | – | 31.17 kPa
407.25 K | – | 38.57 kPa
413.43 K | – | 47.37 kPa
419.66 K | – | 57.81 kPa
425.98 K | – | 70.24 kPa
432.21 K | – | 84.53 kPa
438.54 K | – | 101.33 kPa
440 K | 306.38 | –
444.91 K | – | 120.8 kPa
451.31 K | – | 143.27 kPa
457.75 K | – | 169.05 kPa
460 K | 317.25 | –
464.23 K | – | 198.53 kPa
470.74 K | – | 232.06 kPa
477.28 K | – | 270.07 kPa
480 K | 327.92 | –
500 K | 338.4 | –
520 K | 348.69 | –
540 K | 358.8 | –
560 K | 368.76 | –
580 K | 378.61 | –
600 K | 388.45 | –

Settings | Critical density [kg/m3] | Critical temperature [K] | molar heat capacity [J/K/mol]
[1], Liquid | 285.8 | 653 | –
[2], 440 K | – | – | 241.31
[2], 460 K | – | – | 247.84
[2], 480 K | – | – | 253.77
[2], 500 K | – | – | 259.54
[2], 520 K | – | – | 265.15
[2], 540 K | – | – | 270.8
[2], 560 K | – | – | 276.99
[2], 580 K | – | – | 284.79
[2], 600 K | – | – | 297.37

Cc1ccc(C)[nH]1 [2,5-dimethyl-1H-pyrrole]
[1]
Settings | mass density [kg/m3]
323.14 K, Liquid, Vibrating tube method | 910.8
348.13 K, Liquid, Vibrating tube method | 890.3
373.12 K, Liquid, Vibrating tube method | 867.7
398.12 K, Liquid, Vibrating tube method | 843.9
423.11 K, Liquid, Vibrating tube method | 819.6
448.11 K, Liquid, Vibrating tube method | 793.5
473.11 K, Liquid, Vibrating tube method | 766.5
498.11 K, Liquid, Vibrating tube method | 738.1
508.11 K, Liquid, Vibrating tube method | 725.6
650 K, Gas, From heat capacities measured by DSC | 144
660.8 K, Gas, From heat capacities measured by DSC | 257
661.5 K, Liquid, From heat capacities measured by DSC | 334
661.7 K, Liquid, From heat capacities measured by DSC | 299

[1], Liquid
Settings | molar entropy [J/K/mol] | vapor or sublimation pressure [kPa]
341.46 K | – | 1.997
354.8 K | – | 3.994
360.76 K | – | 5.333
369.58 K | – | 8.007
376.17 K | – | 10.67
380 K | 263.56 | –
381.49 K | – | 13.34
386.98 K | – | 16.66
391.56 K | – | 19.93
397.58 K | – | 25.02
400 K | 275.4 | –
403.63 K | – | 31.18
409.71 K | – | 38.56
415.81 K | – | 47.35
420 K | 286.97 | –
421.96 K | – | 57.8
428.14 K | – | 70.1
434.36 K | – | 84.53
440 K | 298.28 | –
440.62 K | – | 101.35
446.89 K | – | 120.78
453.2 K | – | 143.21
459.55 K | – | 169.03
460 K | 309.34 | –
465.94 K | – | 198.49
472.36 K | – | 232.03
478.82 K | – | 270.08
480 K | 320.16 | –
500 K | 330.75 | –
520 K | 341.13 | –
540 K | 351.34 | –
560 K | 361.4 | –
580 K | 371.4 | –
600 K | 381.43 | –

Settings | Critical density [kg/m3] | Critical temperature [K] | molar heat capacity [J/K/mol]
[1], Liquid | 288.6 | 662 | –
[2], 380 K | – | – | 227.58
[2], 400 K | – | – | 234.06
[2], 420 K | – | – | 240.2
[2], 440 K | – | – | 246
[2], 460 K | – | – | 251.53
[2], 480 K | – | – | 256.87
[2], 500 K | – | – | 262.15
[2], 520 K | – | – | 267.56
[2], 540 K | – | – | 273.45
[2], 560 K | – | – | 280.39
[2], 580 K | – | – | 289.72
[2], 600 K | – | – | 303.59

c1cc[nH]c1 [pyrrole]
[1]
Settings | mass density [kg/m3]
323.14 K, Liquid, Vibrating tube method | 943.9
348.13 K, Liquid, Vibrating tube method | 921.2
373.12 K, Liquid, Vibrating tube method | 897.8
398.12 K, Liquid, Vibrating tube method | 873.5
423.11 K, Liquid, Vibrating tube method | 847.6
448.11 K, Liquid, Vibrating tube method | 820.2
468.11 K, Liquid, Vibrating tube method | 796.1
604.6 K, Gas, From heat capacities measured by DSC | 104
623.7 K, Gas, From heat capacities measured by DSC | 148
632.4 K, Gas, From heat capacities measured by DSC | 220
633.5 K, Liquid, From heat capacities measured by DSC | 395
635.4 K, Liquid, From heat capacities measured by DSC | 329
637.8 K, Gas, From heat capacities measured by DSC | 271

[1], Liquid
Settings | molar entropy [J/K/mol]
360 K | 181.95
380 K | 189.82
400 K | 197.54
420 K | 205.12
440 K | 212.58
460 K | 219.91
480 K | 227.13
500 K | 234.23
520 K | 241.22
540 K | 248.11

Settings | Critical density [kg/m3] | Critical temperature [K] | molar heat capacity [J/K/mol]
[1], Liquid | 314.2 | 638.5 | –
[2], 360 K | – | – | 143.21
[2], 380 K | – | – | 148.11
[2], 400 K | – | – | 152.99
[2], 420 K | – | – | 157.84
[2], 440 K | – | – | 162.62
[2], 460 K | – | – | 167.28
[2], 480 K | – | – | 171.79
[2], 500 K | – | – | 176.14
[2], 520 K | – | – | 180.48
[2], 540 K | – | – | 185.06

Cn1cccc1 [N-methylpyrrole]
[1]
Settings | mass density [kg/m3]
323.14 K, Liquid, Vibrating tube method | 879.5
348.13 K, Liquid, Vibrating tube method | 854.2
373.12 K, Liquid, Vibrating tube method | 828.2
398.12 K, Liquid, Vibrating tube method | 800.7
423.11 K, Liquid, Vibrating tube method | 772.1
448.11 K, Liquid, Vibrating tube method | 741.1
582.9 K, Gas, From heat capacities measured by DSC | 137
592 K, Gas, From heat capacities measured by DSC | 201
592.7 K, Gas, From heat capacities measured by DSC | 220
593.2 K, Liquid, From heat capacities measured by DSC | 382
596.1 K, Gas, From heat capacities measured by DSC | 257
596.2 K, Liquid, From heat capacities measured by DSC | 328
596.5 K, Liquid, From heat capacities measured by DSC | 337

[1], Liquid
Settings | molar entropy [J/K/mol]
360 K | 230.1
380 K | 239.15
400 K | 248.02
420 K | 256.74
440 K | 265.36
460 K | 273.88
480 K | 282.3
500 K | 290.66
520 K | 298.96

Settings | Critical density [kg/m3] | Critical temperature [K] | molar heat capacity [J/K/mol]
[1], Liquid | 299.8 | 597 | –
[2], 360 K | – | – | 164.66
[2], 380 K | – | – | 170.08
[2], 400 K | – | – | 175.89
[2], 420 K | – | – | 182.02
[2], 440 K | – | – | 188.36
[2], 460 K | – | – | 194.81
[2], 480 K | – | – | 201.34
[2], 500 K | – | – | 208.14
[2], 520 K | – | – | 215.72
